Target: T1, GST-tagged ROR gamma ligand binding domain (LBD) (Homo sapiens, UniProt P51449)
T1 construct: purchased Invitrogen
T1 sequence (P51449 269-508 limits assumed): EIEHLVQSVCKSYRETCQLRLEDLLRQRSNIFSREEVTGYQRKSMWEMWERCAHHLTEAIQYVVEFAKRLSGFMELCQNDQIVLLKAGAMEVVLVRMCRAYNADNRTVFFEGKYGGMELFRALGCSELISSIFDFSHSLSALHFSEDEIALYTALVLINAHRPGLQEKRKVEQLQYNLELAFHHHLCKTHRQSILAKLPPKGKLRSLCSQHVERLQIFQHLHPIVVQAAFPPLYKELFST
Test: TR-FRET assay for ROR gamma (LanthaScreen, Fluorescein-D22 co-activator peptide recruitment)
Assay type: biochemical
Settings: for inhibition at 1 µM: 1 μM compound; for inhibition at 1 µM / inhibition at 10 µM: TR-FRET ratio 520/495; for inhibition at 10 µM: 10 μM compound; for IC50: dose response curve, class symbols
Description: The compounds described herein were screened for ROR gamma modulator activity using the TR-FRET assay (LanthaScreen™ available from Invitrogen of Carlsbad, Calif.) as described in JBC 2011, 286, 26: 22707-10; and Drug Metabolism and Disposition 2009, 37, 10: 2069-78.
The assay is based on the principle that binding of the agonist to the ROR gamma causes a conformational change around helix 12 in the ligand binding domain, resulting in higher affinity for the co-activator peptide. ROR gamma being constitutively active, the Fluorescein-D22 co-activator peptide used in the assay is recruited in the absence of a ligand. Binding of the co-activator peptide, causes an increase in the TR-FRET signal while binding of an antagonist decreases the recruitment of the co-activator peptide, causing a decrease in the TR-FRET signal compared to control with no compound. The assay was performed using a two-step procedure, pre-incubation step with the compound followed by the detection step on addition of the anti-GST tagged terbium (Tb) and fluorescein tagged fluorophores as the acceptor.
Test compounds or reference compounds such as T0901317 (Calbiochem) were dissolved in dimethylsulfoxide (DMSO) to prepare 10.0 mM stock solutions and diluted to the desired concentration. The final concentration of DMSO in the reaction was 4% (v/v). The assay mixture was prepared by mixing 10 nM of the GST-tagged ROR gamma ligand binding domain (LBD) in the assay buffer containing 25 mM HEPES, 100 mM NaCl, 5 mM DTT and 0.01% BSA with or without the desired concentration of the compound. The reaction was incubated at 22° C. for 1 hour. The pre-incubation step was terminated by addition of the detection mixture containing 300 nM Fluorescein-D22 co-activator peptide and 10 nM lantha screen Tb-anti GST antibody into the reaction mixture. After shaking for 5 minutes the reaction was further incubated for 1 hour at room temperature and read […] on an Infinite F500 reader as per the kit instructions (Invitrogen). The inhibition of test compound was calculated based on the TR-FRET ratio of 520/495. The activity was calculated as a percent of control reaction. IC50 values were calculated from dose response curve by nonlinear regression analysis using GraphPad Prism software.
Percentage inhibition at concentrations of 1.0 μM and 10.0 μM are given in the table along with IC50 (nM) details for selected examples.

Row | Compound | inhibition at 1 µM [%] | inhibition at 10 µM [%] | IC50 [µM]
1 | CCC(F)(F)c1ccc(CC(=O)Nc2ccc(C(=O)N(C)c3cc(C)cc(-c4ccccc4F)c3)cc2)cc1 [Example 13] | 87.5 | 90.6 | 0.05 to 0.1
2 | CC(O)C(F)(F)c1ccc(CC(=O)Nc2ccc(C(=O)N(C)c3ccc(Cl)cc3Cl)cc2)cc1 (stereo not drawn) [Example 25] | 82 | 90 | < 0.05
3 | Cc1ccc(N(C)C(=O)c2ccc(NC(=O)Cc3ccc(C(F)(F)C(C)O)cc3)cc2)c(C2CC2)c1 (stereo not drawn) [Example 34] | 91.8 | 92.6 | < 0.05
4 | CCOC(=O)C(F)(F)c1ccc(CC(=O)Nc2ccc(C(=O)N(C)c3ccc(Cl)cc3)cc2)cc1 [Example 1, Ethyl 2-(4-(2-((4-((4-chlorophenyl)(methyl)carbamoyl)phenyl)amino)-2-oxoethyl)phenyl)-2,2-difluoroacetate] | 27.6 | 64.5 | 
5 | Cc1ccc(C2CC2)cc1N(C)C(=O)c1ccc(NC(=O)Cc2ccc(C(F)(F)C(C)O)cc2)cc1 (stereo not drawn) [Example 39] | 84.1 | 92 | < 0.05
6 | Cc1cc(N(C)C(=O)c2ccc(NC(=O)Cc3ccc(C(F)(F)C(C)O)cc3)cc2)c(F)cc1Cl (stereo not drawn) [Example 37] | 93.9 | 96.3 | < 0.05
7 | CCC(F)(F)c1ccc(CC(=O)Nc2ccc(C(=O)N(C)c3ccccc3Cl)cc2)cc1 [Example 6] | 90.9 | 91.2 | < 0.05
8 | Cc1cc(C)cc(N(C)C(=O)c2ccc(NC(=O)Cc3ccc(C(F)(F)CO)cc3)cc2)c1 [Example 7] | 87.5 | 95.1 | < 0.05
9 | CN(C(=O)c1ccc(NC(=O)Cc2ccc(C(F)(F)C(N)=O)cc2)cc1)c1ccc(Cl)cc1 [Example 2, 4-(2-(4-(2-amino-1,1-difluoro-2-oxoethyl)phenyl)acetamido)-N-(4-chlorophenyl)-N-methylbenzamide] | 20.7 | 43.4 | 
10 | Cc1cc(C)cc(N(C)C(=O)c2ccc(NC(=O)Cc3ccc(C(F)(F)C(C)(C)O)cc3)cc2)c1 [Example 9, 4-(2-(4-(1,1-difluoro-2-hydroxy-2-methylpropyl)phenyl)acetamido)-N-(3,5-dimethylphenyl)-N-methylbenzamide] | 86.2 | 97 | > 0.1
11 | Cc1cc(C)cc(N(C)C(=O)c2ccc(NC(=O)Cc3ccc(C(F)(F)C(C)O)cc3)cc2)c1 (stereo not drawn) [Example 8] | 94.8 | 96.5 | < 0.05
12 | Cc1ccc(N(C)C(=O)c2ccc(NC(=O)Cc3ccc(C(F)(F)C(C)O)cc3)cc2)c(Cl)c1 (stereo not drawn) [Example 23] | 88.8 | 93.2 | < 0.05
13 | Cc1ccc(N(C)C(=O)c2ccc(NC(=O)Cc3ccc(C(F)(F)[C@@H](C)O)cc3)cc2)c(Cl)c1 [Example 29, (R)—N-(2-Chloro-4-methylphenyl)-4-(2-(4-(1,1-difluoro-2-hydroxypropyl)phenyl)acetamido)-N-methylbenzamide] | 80.7 | 87.1 | < 0.05
14 | CCC(F)(F)c1ccc(CC(=O)Nc2ccc(C(=O)N(CC(F)(F)F)c3cccc(Cl)c3)cc2)cc1 [Example 14] | 84 | 87.6 | < 0.05
15 | Cc1cc(C)c(N(C)C(=O)c2ccc(NC(=O)Cc3ccc(C(F)(F)C(C)O)cc3)cc2)c(C)c1 (stereo not drawn) [Example 32] | 84.9 | 95 | 0.05 to 0.1
16 | CC(O)C(F)(F)c1ccc(CC(=O)Nc2ccc(C(=O)N(C)[C@@H](c3ccc(Cl)cc3)C3CC3)cc2)cc1 (stereo partly drawn) [Example 19] | 82.6 | 92.8 | 0.05 to 0.1

Row | Compound | inhibition at 1 µM [%] | inhibition at 10 µM [%] | IC50 [µM]
17 | CCC(F)(F)c1ccc(CC(=O)Nc2ccc(C(=O)N(C)c3cc(Cl)ccc3Cl)cc2)cc1 [Example 4] | 88.5 | 91.1 | < 0.05
18 | Cc1cccc(Cl)c1N(C)C(=O)c1ccc(NC(=O)Cc2ccc(C(F)(F)C(C)O)cc2)cc1 (stereo not drawn) [Example 31] | 79.1 | 86.6 | 0.05 to 0.1
19 | CN(C(=O)c1ccc(NC(=O)Cc2ccc(C(F)(F)CO)cc2)cc1)c1ccc(Cl)cc1 [Example 3, N-(4-chlorophenyl)-4-(2-(4-(1,1-difluoro-2-hydroxyethyl)phenyl)acetamido)-N-methylbenzamide] | 75 | 85.8 | > 0.1
20 | Cc1cc(C)cc(N(C)C(=O)c2ccc(NC(=O)Cc3ccc(C(F)(F)[C@@H](C)O)cc3)cc2)c1 [Example 36] | 89.7 | 94.5 | < 0.05
21 | CCC(F)(F)c1ccc(CC(=O)Nc2ccc(C(=O)N(C)[C@@H](C)c3ccc(Cl)cc3)cc2)cc1 [Example 20] | 61.5 | 75 | 
22 | CCC(F)(F)c1ccc(CC(=O)Nc2ccc(C(=O)N(C)[C@H](C)c3ccc(Cl)cc3)cc2)cc1 [Example 17] | 87.1 | 90.8 | < 0.05
23 | CCC(F)(F)c1ccc(CC(=O)Nc2ccc(C(=O)N(C)c3cc(C)cc(C)c3)cc2)cc1 [Example 11] | 90.1 | 92.9 | < 0.05
24 | COCC(F)(F)c1ccc(CC(=O)Nc2ccc(C(=O)N(C)[C@H](C)c3ccc(Cl)cc3)cc2)cc1 [Example 16] | 84.5 | 93.7 | > 0.1
25 | Cc1ccc(Cl)c(N(C)C(=O)c2ccc(NC(=O)Cc3ccc(C(F)(F)C(C)O)cc3)cc2)c1 (stereo not drawn) [Example 27] | 90.1 | 92 | < 0.05
26 | CC(O)C(F)(F)c1ccc(CC(=O)Nc2ccc(C(=O)N(C)c3cccc(Cl)c3F)cc2)cc1 (stereo not drawn) [Example 26] | 86.4 | 93.2 | < 0.05
27 | Cc1ccc(F)c(N(C)C(=O)c2ccc(NC(=O)Cc3ccc(C(F)(F)C(C)O)cc3)cc2)c1 (stereo not drawn) [Example 28] | 90.5 | 93.9 | < 0.05
28 | Cc1cc(-c2ccccc2F)cc(N(C)C(=O)c2ccc(NC(=O)Cc3ccc(C(F)(F)C(C)O)cc3)cc2)c1 (stereo not drawn) [Example 12] | 89.4 | 93.7 | 0.05 to 0.1
29 | CCC(F)(F)c1ccc(CC(=O)Nc2ccc(C(=O)N(C)[C@@H](c3ccc(Cl)cc3)C3CC3)cc2)cc1 [Example 18] | 87.4 | 90 | < 0.05
30 | Cc1cc(Cl)ccc1N(C)C(=O)c1ccc(NC(=O)Cc2ccc(C(F)(F)C(C)O)cc2)cc1 (stereo not drawn) [Example 24] | 82.6 | 88.7 | < 0.05
31 | COCC(F)(F)c1ccc(CC(=O)Nc2ccc(C(=O)N(C)c3cc(C)cc(C)c3)cc2)cc1 [Example 10] | 93.2 | 95.3 | < 0.05
32 | CC(O)C(F)(F)c1ccc(CC(=O)Nc2ccc(C(=O)N(C)c3cc(Cl)cc(Cl)c3)cc2)cc1 (stereo not drawn) [Example 21, N-(3,5-dichlorophenyl)-4-(2-(4-(1,1-difluoro-2-hydroxypropyl)phenyl)acetamido)-N-methylbenzamide] | 82.2 | 87.9 | < 0.05
